In PubChem BioAssay (NCI):
Several values for one entry are separate records, joined by “and”; a condition that tells them apart may be missing. Identical values can stand only once.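 Test compounds were applied to cells in 96-well plates for 48 hours at 5 doses. GI50 marks 50% less growth. Definition used: TGI = concentration required for complete inhibition of growth.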

Experiments:
Assay in all cases: growth of human tumour cells (NCI), 48 h; in the data active = GI50 below about 0.43 µM; inactive = the rest
[1] = test system: NCI/ADR-RES ovarian
[2] = test system: SK-MEL-2 melanoma
[3] = test system: ACHN renal
[4] = test system: CCRF-CEM leukemia
[5] = test system: OVCAR-4 ovarian
[6] = test system: HL-60(TB) leukemia
[7] = test system: NCI-H23 lung
[8] = test system: BT-549 breast
[9] = test system: A498 renal
[10] = test system: UACC-257 melanoma
[11] = test system: CAKI-1 renal
[12] = test system: MALME-3M melanoma
[13] = test system: HT29 colon
[14] = test system: T-47D breast
[15] = test system: SN12C renal
[16] = test system: SNB-75 CNS
[17] = test system: NCI-H226 lung
[18] = test system: SR leukemia
[19] = test system: TK-10 renal
[20] = test system: K-562 leukemia
[21] = test system: SNB-19 CNS
[22] = test system: HOP-62 NSCLC
[23] = test system: SF-539 CNS
[24] = test system: OVCAR-8 ovarian
[25] = test system: 786-0 renal
[26] = test system: MOLT-4 leukemia
[27] = test system: NCI-H522 lung
[28] = test system: SW-620 colon
[29] = test system: EKVX NSCLC
[30] = test system: COLO 205 colon
[31] = test system: M14 melanoma
[32] = test system: SK-MEL-28 melanoma
[33] = test system: HCT-15 colon
[34] = test system: SK-MEL-5 melanoma
[35] = test system: MCF7 breast
[36] = test system: MDA-N
[37] = test system: OVCAR-3 ovarian
[38] = test system: LOX IMVI melanoma
[39] = test system: SF-295 CNS
[40] = test system: NCI-H460 lung
[41] = test system: MDA-MB-231 breast
[42] = test system: U251 CNS
[43] = test system: RPMI-8226 leukemia
[44] = test system: A549 NSCLC
[45] = test system: PC-3 prostate
[46] = test system: UO-31 renal
[47] = test system: KM12 colon
[48] = test system: DU-145 prostate
[49] = test system: SF-268 CNS
[50] = test system: HCT-116 colon
[51] = test system: MDA-MB-435
[52] = test system: OVCAR-5 ovarian
[53] = test system: HOP-92 NSCLC
[54] = test system: IGROV1 ovarian
[55] = test system: SK-OV-3 ovarian
[56] = test system: RXF 393 renal
[57] = test system: HS 578T breast
[58] = test system: HCC-2998 colon
[59] = test system: UACC-62 melanoma

COC(=O)CCC(C)[C@H]1CCC2C3C(C[C@H](OC(C)=O)[C@@]21C)[C@@]1(C)CCC2(C[C@H]1C[C@H]3OC(C)=O)OOC1(CCCCCCC1)OO2 (some centres not stated)
6.21 µM: TGI [43]
52.7 µM: TGI [22]
50 µM: TGI [17]
28.8 µM: TGI [46]
> 100 µM: TGI [1] | TGI [2] | TGI [3] | TGI [4] | TGI [5] | TGI [6] | TGI [7] | TGI [8] | TGI [9] | TGI [10] | TGI [11] | TGI [12] | TGI [13] | TGI [14] | TGI [15] | TGI [16] | TGI [18] | TGI [19] | TGI [20] | TGI [21] | TGI [23] | TGI [24] | TGI [25] | TGI [26] | TGI [27] | TGI [28] | TGI [29] | TGI [30] | TGI [31] | TGI [32] | TGI [33] | TGI [34] | TGI [35] | TGI [36] | TGI [37] | TGI [38] | TGI [39] | TGI [40] | TGI [41] | TGI [42] | TGI [44] | TGI [45] | TGI [47] | TGI [48] | TGI [49] | TGI [50] | TGI [51] | TGI [52] | TGI [53] | TGI [54] | TGI [55] | TGI [56] | TGI [57]

Cc1[nH]c2ncn(Nc3ccccc3)c(=N)c2c1Cc1ccccc1
> 91.6 µM: TGI [56]
> 86.9 µM: TGI [14]
> 70.6 µM: TGI [11]
> 100 µM: TGI [1] | TGI [3] | TGI [4] | TGI [5] | TGI [6] | TGI [7] | TGI [8] | TGI [9] | TGI [10] | TGI [58] | TGI [12] | TGI [13] | TGI [59] | TGI [15] | TGI [16] | TGI [17] | TGI [18] | TGI [19] | TGI [20] | TGI [21] | TGI [22] | TGI [23] | TGI [24] | TGI [25] | TGI [26] | TGI [27] | TGI [28] | TGI [29] | TGI [30] | TGI [31] | TGI [32] | TGI [33] | TGI [34] | TGI [35] | TGI [36] | TGI [37] | TGI [38] | TGI [39] | TGI [40] | TGI [41] | TGI [42] | TGI [43] | TGI [44] | TGI [45] | TGI [46] | TGI [48] | TGI [49] | TGI [50] | TGI [51] | TGI [52] | TGI [53] | TGI [55] | TGI [57]
> 56.8 µM: TGI [47]
98.4 µM: TGI [54]

CC(=O)O[C@H]1CC2C(C3CC[C@H](C(C)CCC(N)=O)[C@]31C)[C@H](OC(C)=O)C[C@@H]1CC3(CC[C@]21C)OOC1(CCC(C)CC1)OO3 (some centres not stated)
4.37 µM and 3.2 µM: TGI [2]
14.3 µM and 8.13 µM: TGI [32]
4.94 µM: TGI [41]
5.36 µM and 3.72 µM: TGI [50]
15.2 µM and 5.01 µM: TGI [35]
11.6 µM and 3.22 µM: TGI [34]
3.33 µM and 4.43 µM: TGI [4]
3.78 µM and 3.2 µM: TGI [25]
4.07 µM: TGI [43]
6.25 µM and 3.56 µM: TGI [53]
2.35 µM and 2.78 µM: TGI [29]
8.39 µM and 3.57 µM: TGI [19]
3.07 µM and 1.84 µM: TGI [54]
4.91 µM: TGI [36]
4.47 µM and 4.44 µM: TGI [26]
7.01 µM: TGI [13]
12.3 µM and 3.59 µM: TGI [39]
4.46 µM: TGI [49]
6.13 µM: TGI [44]
4.56 µM and 3.12 µM: TGI [24]
8.01 µM and 3.28 µM: TGI [1]
16.3 µM and 3.94 µM: TGI [55]
5.15 µM and 3.25 µM: TGI [11]
4.86 µM and 3.66 µM: TGI [52]
16.8 µM and 5 µM: TGI [20]
3.08 µM and 2.64 µM: TGI [46]
8.76 µM: TGI [40]
9.44 µM and 4.29 µM: TGI [45]
3.26 µM: TGI [48]
6.13 µM and 4.82 µM: TGI [6]
3.99 µM: TGI [59]
4.05 µM: TGI [16]
5.29 µM and 3.45 µM: TGI [7]
3.88 µM and 2.93 µM: TGI [3]
3.78 µM: TGI [42]
4.19 µM and 4.21 µM: TGI [14]
4.69 µM and 3.41 µM: TGI [47]
3.51 µM and 3.8 µM: TGI [37]
3.19 µM and 3.12 µM: TGI [30]
6.2 µM and 3.15 µM: TGI [17]
19.4 µM and 5.72 µM: TGI [21]
8.64 µM and 3.76 µM: TGI [31]
inactive: GI50 [59] 1.85 µM | GI50 [16] 1.98 µM | GI50 [21] 5.31 µM and 2.62 µM | GI50 [22] 1.47 µM and 1.07 µM | GI50 [29] 1.01 µM and 1.43 µM | GI50 [32] 5.65 µM and 2.48 µM | GI50 [48] 1.82 µM | GI50 [54] 1.54 µM and 0.491 µM | GI50 [55] 4.3 µM and 2.11 µM
29.3 µM and 24.4 µM: TGI [9]
5.69 µM and 3.24 µM: TGI [15]
4.57 µM and 3.96 µM: TGI [58]
7.1 µM and 3.37 µM: TGI [23]
9.72 µM: TGI [56]
3.28 µM: TGI [18]
22.9 µM and 19.2 µM: TGI [10]
5.77 µM and 5.51 µM: TGI [57]
3.52 µM and 3.02 µM: TGI [5]
3.6 µM and 2.94 µM: TGI [27]
9.95 µM and 4.07 µM: TGI [12]
11.5 µM and 4.24 µM: TGI [28]
2.96 µM and 2.31 µM: TGI [22]
4.89 µM and 3.43 µM: TGI [33]
6.43 µM and 3.35 µM: TGI [8]
4.47 µM and 3.23 µM: TGI [51]

COc1ccc(C2CC(c3ccc4ccccc4c3O)=NN2)cc1OC (configuration not stated)
46.3 µM: TGI [18]
96 µM: TGI [41]
> 100 µM: TGI [1] | TGI [2] | TGI [3] | TGI [5] | TGI [7] | TGI [9] | TGI [10] | TGI [11] | TGI [58] | TGI [12] | TGI [13] | TGI [59] | TGI [14] | TGI [15] | TGI [16] | TGI [17] | TGI [19] | TGI [22] | TGI [23] | TGI [24] | TGI [25] | TGI [27] | TGI [28] | TGI [30] | TGI [31] | TGI [32] | TGI [33] | TGI [34] | TGI [35] | TGI [37] | TGI [39] | TGI [40] | TGI [42] | TGI [43] | TGI [44] | TGI [45] | TGI [46] | TGI [47] | TGI [48] | TGI [49] | TGI [50] | TGI [51] | TGI [52] | TGI [53] | TGI [54] | TGI [55] | TGI [56] | TGI [57]
42.6 µM: TGI [4]
65.4 µM: TGI [26]
60.8 µM: TGI [36]
74 µM: TGI [8]
52.1 µM: TGI [20]
